Test results as given in patent US9458100B2, “Synthesis and growth regulatory activity of a prototype member of a new family of aminothiol radioprotectors” (Wisconsin Alumni Research Foundation, priority 2012, dated 2016).
Where two headings read alike, the source gives them in different places. Marks after values point to notes of the source that are not given here.

Experiments:
[1] = system: mice exposed to whole-body radiation; experiment: Mouse survival after whole-body radiation (systemic radioprotection); assay type: in vivo; details: for Mouse % Survival: 8.63 Gy whole-body radiation
Procedure: Exposure of a control mouse to the same dose of radiation in the absence of PrC-210 administration (e.g., a water-only control) is 100% lethal (FIG. 4, “IP Water”). Each treatment group contained 20 mice. The dose of PrC-210 was 252 μg/g body weight.
In additional experiments, female ICR mice received 200 μl doses (e.g., 900 μg/g body weight) of PrC-210 dissolved in water by gavage at the indicated times prior to irradiation (See FIG. 6). At 0 min, mice were irradiated with 9.0 Gy of whole-body radiation in a CS^137 irradiator. Mice were returned to housing and their weights and survival were monitored for the next 60 days. There were six mice in each of the treatment groups.
[…] Survival rates greater than the 0% Survival seen in the vehicle control group were attributed to systemic radioprotection conferred by the systemically administered radioprotector molecule.

ferret = experiment: Ferret retch/emesis model; assay type: in vivo
mouse [2] = experiment: Systemic toxicity, maximum tolerated dose in mouse; assay type: in vivo; details: for Mouse IP MTD: intraperitoneal
Procedure: (§1) During the development of embodiments of the technology provided herein, embodiments of compounds described herein and/or encompassed by the synthetic schemes were tested for systemic toxicity and radioprotection in mouse and rat models (Table 2). Toxic doses are shown as the “maximum tolerated dose” (“MTD”) for intraperitoneal (IP), oral, and subcutaneous (SC) administration routes in Table 2.
(§2) Doses expressed as a fraction of “MTD” are expressed as a fraction of the “maximum tolerated dose”. Doses expressed in units of ug/g correspond to micrograms of the compound per gram of body weight.

mouse [3] = details: intraperitoneal; published value; cited from earlier work
[4] = system: radiation dermatitis in rat skin; experiment: Rat radiation dermatitis assay with topical application before irradiation; assay type: in vivo; details: topical in ethanol/water vehicle four times in the 2 h before 17.33 Gy; scored 13 days later
Procedure: To determine if PrC-210 could function as a topical radioprotector that could prevent radiation dermatitis when applied prior to a cancer patient's daily radiotherapy, a rat assay that realistically mimics human radiation dermatitis was created. This assay quantifies the severity of radiation dermatitis in rat skin 13 days after a single radiation dose of 17.33 Gy. In this study, PrC-210 was applied to rat skin in an ethanol/water delivery vehicle four times in the 2 h before irradiation, and control rats received only topical vehicle before irradiation (FIG. 2). Additional drug/irradiation groups of three rats each received either the alkyl-thiol moiety or the alkyldiamine moiety from PrC-210 in the same delivery vehicle. Following the 17.33 Gy irradiation of a […] patch of dorsal skin on the rats' backs, rats were scored 13 days later.
Molecules were applied to skin in an alcohol/water delivery vehicle prior to receiving a 17.33 Gy radiation dose to the 1.5 cm×3.0 cm skin site. Radiation dermatitis severity (e.g., % of the site covered by scab material) was scored 13 days following irradiation.

[5] = system: rats exposed to whole-body radiation; experiment: Rat survival after whole-body radiation (oral radioprotection); assay type: in vivo
Procedure: Female Sprague-Dawley rats received 200 μl doses of PrC-210 dissolved in water by gavage a time of 60 minutes prior to irradiation (time=−60 min). […] Rats were returned to housing and their weights and survival were monitored for the next 60 days. There were six rats in each of the treatment groups. As shown by FIG. 5, oral PrC-210 confers 100% protection against an otherwise 100% lethal dose of whole-body radiation.

rat [6] = experiment: Rat aortic blood pressure monitoring (hypotension side effect); assay type: in vivo; details: anesthetized rats, intraperitoneal injection
Procedure: Blood pressure was monitored in the aortic artery of rats using a high-fidelity pressure transducer. Rats were continually anesthetized with 2% isofluorane, and drug doses were administered by intraperitoneal injection. Rats received intraperitoneal saline injections until these injections induced no change in monitored blood pressure. Indicated doses of PrC-210 or amifostine (FIG. 8) were administered and changes in blood pressure and heart rate were recorded. A condensed summary of drug-induced changes for all cannulated rats is shown in panel C. Doses of epinephrine (Epi; hypertensive) were also recurrently admininesterod to test if previous PrC-210 or amifostine doses could be modified.

[7] = Biodistribution of intravenous bolus of 14C PrC-210 in rat; assay type: in vivo
Procedure: During the development of embodiments of the technology provided herein, experiments were conducted to test the biodistribution of an intravenous bolus dose of radiolabeled (e.g., ^14C) PrC-210 in a rat host. In these experiments, an intravenous bolus of 100 μCi of ^14C PrC-210 was administered into an indwelling catheter in a 300 g rat.

rat [8] = experiment: Systemic toxicity, maximum tolerated dose in rat; assay type: in vivo
Procedure: as §1, §2

Structure (SMILES): NCCCNCCSP(=O)(O)O [Amifostine, amifostine, reference compound]
- Mouse % Survival ([1]; at IP 0.5 MTD: 400 ug/g): 88%
- retch/emesis responses (ferret; in vivo): caused retch/emesis responses in each of the four ferrets tested
- Mouse IP MTD (mouse [2]): 760^d μg/g b.w.
- Mouse IP MTD (mouse [3]): 800^c μg/g b.w.

Structure (SMILES): CN(C)C(=O)C(CCN1CCC(O)(c2ccc(Cl)cc2)CC1)(c1ccccc1)c1ccccc1 [Loperamide]
- retch/emesis responses (ferret; ferret equivalent of highest human dose, loperamide as positive control 14 days later): robust retch/emesis response in each of the 14 ferrets

Structure (SMILES): CNCC(CNC)CSSCC(CNC)CNC [PrC-210 Disulfide]
- Mouse % Survival ([1]; at IP 0.5 MTD: 78 ug/g): <5%
- Mouse % Survival ([1]; at IP 0.9 MTD: 140 ug/g): 37%
- Mouse IP MTD (mouse [2]): 155 μg/g b.w.

Structure (SMILES): CNCC(CS)CNC [PrC-210, 3-(methyl-amino)-2-((methylamino)methyl)propane-1-thiol]
- prevention of radiation dermatitis [4]: completely prevent radiation dermatitis
- Mouse % Survival ([1]; at IP 0.5 MTD: 211 ug/g): 98%
- Mouse % Survival ([1]; at IP 0.5 MTD: 252 ug/g): 100%
- Mouse % Survival ([1]; at ORAL 0.87 MTD: 1550 ug/g (only dose tested)): 100%
- protection against otherwise 100% lethal whole-body radiation ([1]; female ICR mice, oral 900 μg/g body weight, 60 minutes before 9.0 Gy): 100%
- survival ([1]; mouse, IP 252 μg/g body weight, 30 minutes before 8.75 Gy whole-body radiation): 100%
- Rat % Survival ([5]; at ORAL 0.5 MTD: 900 ug/g, 9.5 Gy whole-body radiation): 100% (at ORAL 0.5 MTD: 900 ug/g)
- protection against otherwise 100% lethal whole-body radiation ([5]; female Sprague-Dawley rats, oral gavage 60 minutes prior, monitored 60 days): 100%
- retch/emesis responses (ferret; in vivo): zero retching or emesis responses
- hypotension side effects (rat [6]): does not cause hypotension side effects
- Recovery (carcass) ([7]; 100 uCi IV): 6.89%
- Cmax ([7]; 100 uCi IV 14C PrC-210): 21,400 ng-eq/g
- Tmax ([7]; 100 uCi IV 14C PrC-210): 30 min
- Recovery2 (systemic) ([7]; 100 uCi IV, excreta + carcass): 81.23%
- Recovery3 (total) ([7]; 100 uCi IV, systemic + skin + cage wash + cage wipe + enclosure): 84.20%
- Recovery1 (excreta) ([7]; 100 uCi IV, urine + urine wipes + feces): 74.34%
- administered radioactivity eliminated via feces ([7]; intravenous 14C PrC-210): approximately 10%
- administered radioactivity eliminated via urine ([7]; intravenous 14C PrC-210): approximately 50%
- Mouse IP MTD (mouse [2]; determined using best fit analysis of survival data): 422^b μg/g b.w.
- Mouse IP MTD (mouse [2]; determined using probit analysis of survival data): 504^a μg/g b.w.
- Mouse ORAL MTD (mouse [2]; oral): 1780 μg/g b.w.
- Mouse SC MTD (mouse [2]; subcutaneous): 431 μg/g b.w.
- Rat IP MTD (rat [8]; intraperitoneal): 485 μg/g b.w.
- Rat ORAL MTD (rat [8]; oral): 1974 μg/g b.w.

Structure (SMILES): NCC(CN)CS [PrC-211]
- Mouse % Survival ([1]; at IP 0.25 MTD: 118 ug/g): 37%
- Mouse % Survival ([1]; at IP 0.5 MTD: 238 ug/g): 47%
- Mouse % Survival ([1]; at IP 0.9 MTD: 427 ug/g): 100%
- Mouse IP MTD (mouse [2]): 475 μg/g b.w.
